Test results from paper PMC11474028, “Lipopeptide antibiotics disrupt interactions of undecaprenyl phosphate with UptA” (Proceedings of the National Academy of Sciences of the …, 2024).
Entries after “also recorded” stand apart in the source; their conditions may differ.

What was measured:
[1] = tested on: UptA R118A/R119A; assay: Native MS of C55-P binding to UptA double mutant R118A/R119A; design: species or system Bacillus subtilis; conditions: 5 µM protein, 10 µM C55-P, pH 8.02, 0.05% LDAO, 200 mM ammonium acetate, 100 V; mean of three biological replicates
[2] = tested on: UptA R112A/R118A; assay: Native MS of C55-P binding to UptA double mutant R112A/R118A; design: species or system Bacillus subtilis; conditions: 5 µM protein, 10 µM C55-P, pH 8.02, 0.05% LDAO, 200 mM ammonium acetate, 100 V; mean of three biological replicates
[3] = biological target: UptA (Bacillus subtilis, UniProt O31823); assay: Native MS competition of C55-P and phospholipids for UptA binding; conditions: 4 µM UptA and 10 µM DOPG or DOPE, increasing C55-P up to 20 µM, on ice 15 min
Chain of UptA (O31823 whole entry): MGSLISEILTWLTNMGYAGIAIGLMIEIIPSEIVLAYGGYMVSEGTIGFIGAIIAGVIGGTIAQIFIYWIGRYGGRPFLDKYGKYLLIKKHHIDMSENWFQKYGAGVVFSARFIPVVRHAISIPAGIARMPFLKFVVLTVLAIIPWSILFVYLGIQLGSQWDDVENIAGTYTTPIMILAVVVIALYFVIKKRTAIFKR
Procedure: To investigate whether or not C55-P can outcompete phospholipids in binding to UptA, we incubated solutions containing UptA-DOPG with increasing concentrations of C55-P. Spectra were recorded after aliquots of the solution were equilibrated on ice for 15 min. […] We therefore hypothesised that phospholipids should be unable to outcompete C55-P bound to UptA. To test this hypothesis, we incubated UptA with C55-P and then equilibrated aliquots with an increasing concentration of DOPG. […]
The chloroform layer containing the total lipids was recovered into a clean glass vial, and the organic solvent was evaporated in a SpeedVac for 16 h. Lipid film was resuspended 200 mM ammonium acetate, 0.05% LDAO (pH 8.0) to ~0.5 mg/mL for the binding experiments.
Sample preparation for native MS
Before measurements, the protein was buffer-exchanged into 0.05% LDAO, 200 mM ammonium acetate (“MS buffer”) at the desired pH using a centrifugal buffer exchange device (Micro Bio -Spin 6, Bio-Rad). Stock solutions of lipids were prepared from chloroform/methanol solution by evaporating aliquots of known volume in a SpeedVac. After drying, the lipid films were weighed and resuspended to a final concentration of 0.5 mM in 200 mM ammonium acetate (pH8) and 0.05% LDAO by vertexing. Stock solutions of 0.5 mM amphomycin, aspartocin D, daptomycin and bacitracin, were made in the same buffer. All experiments were repeated three times from newly prepared stock solutions.
About 3 μL protein aliquot was transferred into a gold-coated borosilicate capillary (Harvard Apparatus) and was mounted on the nano ESI source of a Q-Exactive hybrid quadrupole-Orbitrap mass spectrometer (Thermo Fisher Scientific, Bremen, Germany). The instrument settings were 1.2 kV capillary voltage, S-lens RF 200%, argon UHV pressure 3.3 × 10−10 mbar, the capillary temperature was set to 200 °C, and resolution of the instrument was set to 17,500 at a transie nt time of 64 ms. […] The resulting fragments were detected in the Orbitrap (R = 280,000 @ m/z 200), averaging ~500 transients to maximise the signal-to-noise ratio. […]

## CC(C)=CCC/C(C)=C/CC/C(C)=C/CC/C(C)=C\CC/C(C)=C\CC/C(C)=C\CC/C(C)=C\CC/C(C)=C\CC/C(C)=C\CC/C(C)=C\CC/C(C)=C\COP(=O)(O)O [C55-P, undecaprenyl phosphate]
[1]
  reduction in C55-P binding, R118A/R119A: 46%
[2]
  reduction in C55-P binding, R112A/R118A: 43%
[3]
  displacement of phospholipid from UptA by C55-P (in words): C55-P has displaced most of DOPG from UptA; also recorded: C55-P effectively outcompete DOPE for UptA binding
